Experimental data as given in PMC6825221, “In silico re-engineering of a neurotransmitter to activate KCNQ potassium channels in an isoform-specific manner” (Communications Biology, 2019).
“And” between values parts separate entries of the source, which are not always exact repeats. Equal values may be shown once.

Key:
[1] = biological target: T1, GLRA1 (Homo sapiens, UniProt P23415); assay: TEVC of glycine receptor GLRA1 expressed in Xenopus oocytes; format: cell-based
T1 sequence (P23415 29-457): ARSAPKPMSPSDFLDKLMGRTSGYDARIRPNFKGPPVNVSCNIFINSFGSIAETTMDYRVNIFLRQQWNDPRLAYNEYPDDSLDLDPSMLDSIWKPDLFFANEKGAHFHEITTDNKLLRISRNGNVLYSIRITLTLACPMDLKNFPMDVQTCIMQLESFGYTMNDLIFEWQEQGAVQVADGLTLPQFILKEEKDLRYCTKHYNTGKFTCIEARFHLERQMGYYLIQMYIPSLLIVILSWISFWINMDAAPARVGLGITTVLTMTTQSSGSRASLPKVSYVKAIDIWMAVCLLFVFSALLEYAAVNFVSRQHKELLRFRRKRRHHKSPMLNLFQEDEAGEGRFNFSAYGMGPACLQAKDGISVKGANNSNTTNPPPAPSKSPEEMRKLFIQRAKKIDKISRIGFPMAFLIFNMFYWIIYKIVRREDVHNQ
Excerpt: We generated cRNA transcripts encoding human KCNQ1, KCNQ2, KCNQ3, KCNQ4, KCNQ5 or GLRA1 (NM_001146040) (GenScript, Piscataway, NJ, USA) by in vitro transcription using the T7 polymerase mMessage mMachine kit (Thermo Fisher Scientific), after vector linearization, from cDNA sub-cloned into plasmids incorporating Xenopus laevis β-globin 5′ and 3′ UTRs flanking the coding region to enhance translation and cRNA stability. We quantified cRNA by spectrophotometry. We generated mutant KCNQ2 and KCNQ3 cDNAs by site-directed mutagenesis using a QuikChange kit (Stratagene, San Diego, CA) and prepared the corresponding cRNAs as above. We injected defolliculated stage V and VI Xenopus laevis oocytes (Ecocyte Bioscience, Austin, TX and Xenoocyte, Dexter, MI) with KCNQ channel α subunit (5-20 ng) or GLRA1 (20 ng) cRNAs. We incubated the oocytes at 16 °C in Barth’s saline solution (Ecocyte Bioscience) containing penicillin and streptomycin, with daily washing, for 2–5 days prior to two-electrode voltage-clamp (TEVC) recording.
We performed TEVC at room temperature using an OC-725C amplifier (Warner Instruments, Hamden, CT) and pClamp10 software (Molecular Devices, Sunnyvale, CA) 2–5 days after cRNA injection as described in the section above. For recording, oocytes were placed in a small-volume oocyte bath (Warner) and viewed them with a dissection microscope. Chemicals were sourced from Sigma, Matrix Scientific and Santa Cruz. […] All stock solutions were diluted in bath solution on the day of experiments. KCNQ2/3 channel activation was screened for using either 30 µM or 100 µM concentrations of each of the six compounds, then dose responses were conducted as appropriate. Bath solution was (in mM): 96 NaCl, 4 KCl, 1 MgCl2, 1 CaCl2, 10 HEPES (pH 7.6). Compounds were introduced into the oocyte recording bath by gravity perfusion at a constant flow of 1 ml per minute for 3 min prior to recording. Pipettes were of 1–2 MΩ resistance when filled with 3 M KCl. Currents were recorded in response to voltage pulses between −120 or −80 mV and + 40 mV at 20 mV intervals from a holding potential of −80 mV, to yield current-voltage relationships, current magnitude, and for quantifying activation rate. We analyzed data using Clampfit (Molecular Devices) and Graphpad Prism software (GraphPad, San Diego, CA, USA); values are stated as mean ± SEM. We plotted raw or normalized tail currents versus prepulse voltage and fitted with a single Boltzmann function:1 g=(A1−A2)/1+exp(V12−V)∕VS+A2, where g is the normalized tail conductance, A1 is the initial value at −∞, A2 is the final value at +∞, V1/2 is the half-maximal voltage of activation and Vs the slope factor. Activation, deactivation, wash-in and washout kinetics were fitted with single exponential functions to yield a τ value.

[2] = biological target: T2, KCNQ3*-R242A (Homo sapiens, UniProt O43525, A315T/R242A); assay: TEVC of homomeric KCNQ3*-R242A; format: cell-based; details: 100 µM
T2 sequence (O43525 1-872 R242A/A315T): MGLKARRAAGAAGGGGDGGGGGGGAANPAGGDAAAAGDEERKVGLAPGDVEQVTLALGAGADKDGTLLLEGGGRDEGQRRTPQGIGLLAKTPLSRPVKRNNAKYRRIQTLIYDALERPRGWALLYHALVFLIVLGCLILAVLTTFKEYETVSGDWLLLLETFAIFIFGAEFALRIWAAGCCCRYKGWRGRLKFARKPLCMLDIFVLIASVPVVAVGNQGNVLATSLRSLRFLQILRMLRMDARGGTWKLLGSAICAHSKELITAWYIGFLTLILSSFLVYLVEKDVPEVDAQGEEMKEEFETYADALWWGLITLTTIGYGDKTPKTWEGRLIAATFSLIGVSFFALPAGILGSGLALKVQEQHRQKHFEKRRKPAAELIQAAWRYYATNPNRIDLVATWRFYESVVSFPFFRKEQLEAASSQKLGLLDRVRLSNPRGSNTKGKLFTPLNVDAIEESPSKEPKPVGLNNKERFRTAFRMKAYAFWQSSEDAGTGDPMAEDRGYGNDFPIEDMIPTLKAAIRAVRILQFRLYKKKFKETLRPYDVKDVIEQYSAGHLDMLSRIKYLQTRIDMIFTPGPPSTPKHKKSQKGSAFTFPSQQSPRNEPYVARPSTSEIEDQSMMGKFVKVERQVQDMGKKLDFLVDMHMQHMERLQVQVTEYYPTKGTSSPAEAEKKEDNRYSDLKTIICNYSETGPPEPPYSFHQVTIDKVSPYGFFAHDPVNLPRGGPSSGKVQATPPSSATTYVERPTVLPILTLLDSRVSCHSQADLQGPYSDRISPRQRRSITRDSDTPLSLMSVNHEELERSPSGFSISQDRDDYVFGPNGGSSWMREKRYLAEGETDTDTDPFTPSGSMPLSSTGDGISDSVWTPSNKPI
Excerpt: We generated cRNA transcripts encoding human KCNQ1, KCNQ2, KCNQ3, KCNQ4, KCNQ5 or GLRA1 (NM_001146040) (GenScript, Piscataway, NJ, USA) by in vitro transcription using the T7 polymerase mMessage mMachine kit (Thermo Fisher Scientific), after vector linearization, from cDNA sub-cloned into plasmids incorporating Xenopus laevis β-globin 5′ and 3′ UTRs flanking the coding region to enhance translation and cRNA stability. We quantified cRNA by spectrophotometry. We generated mutant KCNQ2 and KCNQ3 cDNAs by site-directed mutagenesis using a QuikChange kit (Stratagene, San Diego, CA) and prepared the corresponding cRNAs as above. […]
We performed TEVC at room temperature using an OC-725C amplifier (Warner Instruments, Hamden, CT) and pClamp10 software (Molecular Devices, Sunnyvale, CA) 2–5 days after cRNA injection as described in the section above. […] Currents were recorded in response to voltage pulses between −120 or −80 mV and + 40 mV at 20 mV intervals from a holding potential of −80 mV, to yield current-voltage relationships, current magnitude, and for quantifying activation rate. We analyzed data using Clampfit (Molecular Devices) and Graphpad Prism software (GraphPad, San Diego, CA, USA); values are stated as mean ± SEM. […]

[3] = biological target: KCNQ2 (Homo sapiens, UniProt O43526); assay: [3H]GABA binding and competition, oocytes expressing KCNQ2; details: 100 µM
Procedure: Oocytes were then washed four times in 16 °C ND96, transferred to individual wells in a 96 well plate and lysed in 0.2% SDS in ND96. Each oocyte lysate was transferred to a scintillation vial containing 5 ml Cytoscint scintillation cocktail fluid (MP Biomedicals, Santa Ana, CA). Vials were capped, shaken, and then allowed to sit at room temperature for at least 30 min before scintillation counting in a Beckmann Coulter LS6500 liquid scintillation counter.

In the case of `CS(=O)(=O)N(CC(=O)O)c1cccc(F)c1` [3FMSG], the “inhibition of glycine-activated GLRA1” value ([1]; 100 µM, 1 mM glycine) is reported as 35-40% and ~ 40%, the “activation of GLRA1” value ([1]; 1 mM, compound alone) is reported as “Neither compound activated GLRA1” and the “inhibition of the activation of GLRA1 by 1 mM glycine” value ([1]; each at 100 µM) is reported as “partially inhibited”. For the same compound, the “effect on nonfunctional KCNQ3*-R242A” value [2] was “awakened neither by 3FMSG nor retigabine” and the “competition of GABA binding to KCNQ2” value [3] was “able to compete out GABA binding”.
